The values that follow are results of earlier work, collected in US20050255150A1 (priority 2004, published 2005).

For the series the following is noted: in vivo.

Consider `CCOC(=O)C1(c2ccccc2)CCN(C)CC1` [Meperidine], for which the “Intramuscular Administration equivalent of 10 mg of intramuscular morphine in 24 hours” value (shortened to “Intramuscular Administration equivalent”) is listed as 75 mg.

Consider `CN1CC[C@]23c4c5ccc(O)c4O[C@H]2C(=O)CC[C@@]3(O)[C@H]1C5` [Oxymorphone], for which the “Intramuscular Administration equivalent” value is reported as 1 mg. Besides, the “Oral Administration equivalent of 10 mg morphine in 24 hours” value (po) was 10 mg.

Consider `CCC(=O)C(CC(C)N(C)C)(c1ccccc1)c1ccccc1` (centres unmarked) [Methadone], for which the “Intramuscular Administration equivalent” value is recorded as 10 mg. The “Oral Administration equivalent of 10 mg morphine in 24 hours” value (po) is reported as 20 mg.

For the compound `COc1ccc2c3c1O[C@H]1[C@@H](O)C=C[C@H]4[C@@H](C2)N(C)CC[C@@]341` [Codeine], the “Intramuscular Administration equivalent” value is 130 mg. Moreover, the “Oral Administration equivalent of 10 mg morphine in 24 hours” value (po) is 200 mg.

As for `COc1ccc2c3c1O[C@H]1C(=O)CC[C@@]4(O)[C@@H](C2)N(C)CC[C@]314` [Oxycodone], the “Intramuscular Administration equivalent” value is 15 mg. Also, the “Oral Administration equivalent of 10 mg morphine in 24 hours” value (po) is given as 30 mg.

With `CC(=O)Oc1ccc2c3c1O[C@H]1[C@@H](OC(C)=O)C=C[C@H]4[C@@H](C2)N(C)CC[C@@]341` [Heroin], the “Intramuscular Administration equivalent” value is given as 5 mg. For the same compound, the “Oral Administration equivalent of 10 mg morphine in 24 hours” value (po) was 60 mg.

With `CN1CC[C@]23c4c5ccc(O)c4O[C@H]2[C@@H](O)C=C[C@H]3[C@H]1C5` [Morphine], the “Intramuscular Administration equivalent” value was 10 mg. Moreover, for the setting “po”, the “Oral Administration equivalent of 10 mg morphine in 24 hours” value is listed as 60 (30 mg) and the “Oral Administration equivalent of 10 mg morphine in 24 hours (value in brackets)” value was 60 (30 mg).
